Assay results as given in patent US20240125770A1, “CELL ANALYSIS” (University of Dundee, priority 2021, published 2024).
“Also recorded” adds a separate entry of the source.

System: human iPSC lines
Experiment: Cell painting assay (image-based cell phenotyping) on a panel of human iPSC lines from different donors
Conditions: 24 hrs; for UMAP embedding of cell painting features: cluster: panel of HipSci human iPSC lines, clusters: 1 DMSO and weak responders, 2 Atorvastatin, Simvastatin, Fluphenazine, 3 Afatinib, Erlotinib, Everolimus and Rapamycin, 4 DNA damaging agents and topoisomerase inhibitors, 5 non-microtubule targeting cytotoxics, 6 Microtubule polymerization effectors; for Uniformity or variation of response between human iPSC lines in UMAP embedding: panel of human iPSC lines from different donors, concentration of Table 2 (5 μM; fenbendazole 3.34 μM); for Changes of features in the cell nucleus across cell lines: etoposide 1.7 μM, irinotecan 5 μM, nuclear painting probes; for Response to drug in UMAP embedding, cell lines paim3 and pelm1: paim3 and pelm1 lines (FIG. 7 legend prints pelm3)
Experimental: 384-well tissue culture plates (CellCarrier-384 Ultra Microplates, Perkin Elmer 6057300) were coated with human plasma fibronectin (Merck Millipore FC010) at a concentration of 5 μg/cm^2. Cells were passaged as described above with TrypLE Select, counted and seeded on the fibronectin coated wells at a concentration of 3×10^4/cm^2. Cell line plating was in rows, with three wells per condition for each cell line. Cells were incubated for 24 hrs prior to drug treatment, followed by a further 24 hrs incubation before final fixation and staining and high content imaging. Antibody staining of a separate 384-well plate at 48 hrs confirmed that pluripotency was maintained at 48 hrs.
All fixation, permeabilisation and immunostaining were performed at room temperature. Paraformaldehyde 8% in PBS (PFA, Sigma F8775) was added to an equal volume of medium for a final concentration of 4% and incubated for 15 min. Fixed cells were washed in PBS and permeabilised with 0.1% v/v Triton-X100 (Sigma) for 15 min. Following permeabilisation, cells were washed in TBS and stained with DAPI (Thermo Fisher D1306), SYTO 14 (Thermo Fisher S7576), Concanavalin A (Thermo Fisher C11252), Phalloidin Alexa (Thermo Fisher A12381), and WGA (Thermo Fisher W11262) for 1 hr. Mitotracker (Thermo Fisher M22426) staining was performed in live cells with a 30 min incubation at 37° C. prior to fixation. Cell fixation, permeabilisation, staining and washing steps were performed using automated liquid handling systems (405 plate washer, BioTek—Tempest, Formulatrix).
Drug dosing on 384-well plates was performed using an Echo acoustic liquid handler and corresponding software (Labcyte). Screened compounds were selected from the appropriate chemical library plates containing Cloud library (Enamine) and NPSC Control library. For etoposide drug dosing was performed at 1.7 μM. […]
All imaging data were collected on an InCell 2200 high content imager, with a 20× lens and a Quad2 multichroic mirror (GE, Issaquah, WA).
Raw images were imported into OMERO Plus (Glencoe Software, Inc., (9)) and then processed using a custom pipeline in CellProfiler (8) which segmented nuclei, cytoplasm, golgi and cortical protrusions and calculated a range of defined features. All further steps were executed using the Pandas Python library (10). Features for each plate were normalised by the median of features in DMSO control for that plate. Features whose coefficient of variation was greater than 0.50 were removed from further analysis (typically these were Zernike Phase features). We further removed all features with |Spearman coefficient|>0.98. Z-normalised data were then visualised using principal component analysis (PCA) and Uniform Manifold Approximation and Projection (UMAP (11)). For PCA, we calculated the first 15 principal components and variance included in the first two principal components was 77.1%. UMAP parameters were n_neighbours=15, mindist=0.01 and a cosine metric for scaling distance between points. GO enrichment analysis was carried out using WebGestalt (WEB-based Gene SeT AnaLysis Toolkit) (12)
We next used a selection of human iPSCs from the HipSci cohort to test our ability to detect differential effects of FDA-approved drugs, using an image-based cell phenotyping assay. All selected human iPSC lines were previously subjected to whole genome sequencing (https://www.hipsci.org) and the genome data are publicly available. Cells from selected human iPSC lines (Table 1), were grown in 384 well plates, treated with selected compounds (drugs and concentrations used are shown in Table 2), for 24 hrs, then fixed and stained with cell painting markers (see Materials and Methods). Images were recorded in an automated, plate-based imager, then imported into OMERO (9). Images were segmented with respect to the features, ‘nuclei’, ‘cytoplasm’, ‘Golgi’ and ‘protrusions’, using a custom CellProfiler pipeline (13) and image features were then calculated (˜300 features per cell compartment). […]

For `CC(C)c1c(C(=O)Nc2ccccc2)c(-c2ccccc2)c(-c2ccc(F)cc2)n1CC[C@@H](O)C[C@@H](O)CC(=O)O` [Atorvastatin], the “Magnitude of response: heatmap of deviations of all features from DMSO” value (all cell lines, before Z normalization, 5 μM, FIG. 5A) was “the magnitude of the responses differ between the different cell lines”, the “UMAP embedding of cell painting features: cluster” value (5 μM) was “cluster 2” and the “Uniformity or variation of response between human iPSC lines in UMAP embedding” value (shortened to “Uniformity or variation”) was “tight clustering in UMAP embedding”.
`O=c1[nH]cc(F)c(=O)[nH]1` [5-FU] was tested, and the “Uniformity or variation” value was “Most cells responded to 5-FU (cluster 1, red, FIG. 3A), but several showed a response indistinguishable from DMSO”.
`O=C(CCCCCCC(=O)Nc1ccccc1)NO` [Vorinostat] was tested, and the “Uniformity or variation” value was “splitting of clusters”.
`COC(=O)Nc1nc2ccc(Sc3ccccc3)cc2[nH]1` [Fenbendazole] was tested, and the “Uniformity or variation” value was “splitting of clusters”.
`COc1cc([C@@H]2c3cc4c(cc3[C@@H](O[C@@H]3O[C@@H]5CO[C@@H](C)O[C@H]5[C@H](O)[C@H]3O)[C@H]3COC(=O)[C@H]23)OCO4)cc(OC)c1O` [Etoposide] was tested, and the “Changes of features in the cell nucleus across cell lines” value was “cause similar changes in multiple cell lines”.
`CCc1c2c(nc3ccc(OC(=O)N4CCC(N5CCCCC5)CC4)cc13)-c1cc3c(c(=O)n1C2)COC(=O)[C@]3(O)CC` [Irinotecan] was tested, and the “Changes of features in the cell nucleus across cell lines” value was “cause similar changes in multiple cell lines”.
In the case of `C#Cc1cccc(Nc2ncnc3cc(OCCOC)c(OCCOC)cc23)c1` [Erlotinib], the “Response to drug in UMAP embedding, all other / majority of human iPSC lines” value (human iPSC lines other than paim3 and pelm1, 5 μM) is reported as “resembles rapamycin and everolimus; also recorded: clustered with rapamycin and everolimus”, the “Response to drug in UMAP embedding, cell lines paim3 and pelm1” value (5 μM) is reported as “afatinib cluster” and the “Response to drug in UMAP embedding, cell lines paim3 and pelm1” value (5 μM, listed as erlotinib) is reported as “clustered with afatinib”. The “Uniformity or variation” value was “differential response of some lines”, the “Response to drug in UMAP embedding, cell line voce2” value (voce2 line (along with the majority of hiPSCs), 5 μM, FIG. 7) was “Erlotinib cluster” and the “Response to drug in UMAP embedding, cell line zaie1” value (zaie1 line, 5 μM, FIG. 7) was “weak responders group”.
`CO[C@H]1C[C@@H]2CC[C@@H](C)[C@@](O)(O2)C(=O)C(=O)N2CCCC[C@H]2C(=O)O[C@H]([C@H](C)C[C@@H]2CC[C@@H](OCCO)[C@H](OC)C2)CC(=O)[C@H](C)/C=C(\C)[C@@H](O)[C@@H](OC)C(=O)[C@H](C)C[C@H](C)/C=C/C=C/C=C/1C` [Everolimus] was tested, and the “UMAP embedding of cell painting features: cluster” value (5 μM) was “cluster 3”.
